Test results taken from PubChem BioAssay (NCI).
Where “and” joins values, the source holds several entries; their conditions need not be identical. Identical values can stand only once.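 Assay format: 96-well plates, 48-hour exposure. GI50 is the concentration that inhibits growth by half. TGI: total growth inhibition.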

Legend:
Test in all cases: DTP human tumour cell line panel, 48 h
NCI-H460 lung = system: NCI-H460 lung
HOP-62 NSCLC = system: HOP-62 NSCLC
IGROV1 ovarian = system: IGROV1 ovarian
PC-3 prostate = system: PC-3 prostate
SF-539 CNS = system: SF-539 CNS
CAKI-1 renal = system: CAKI-1 renal
HOP-92 NSCLC = system: HOP-92 NSCLC
HL-60(TB) leukemia = system: HL-60(TB) leukemia
COLO 205 colon = system: COLO 205 colon
RPMI-8226 leukemia = system: RPMI-8226 leukemia

Compound	GI50 (NCI-H460 lung)	TGI (NCI-H460 lung)	GI50 (HOP-62 NSCLC)	TGI (HOP-62 NSCLC)	GI50 (IGROV1 ovarian)	TGI (IGROV1 ovarian)	GI50 (PC-3 prostate)	TGI (PC-3 prostate)	GI50 (SF-539 CNS)	TGI (SF-539 CNS)	GI50 (CAKI-1 renal)	TGI (CAKI-1 renal)	GI50 (HOP-92 NSCLC)	TGI (HOP-92 NSCLC)	GI50 (HL-60(TB) leukemia)	TGI (HL-60(TB) leukemia)	GI50 (COLO 205 colon)	TGI (COLO 205 colon)	GI50 (RPMI-8226 leukemia)	TGI (RPMI-8226 leukemia)
CC(=O)OC(C)(C)/C(C)=C/C(=O)O[C@H]1C(=O)O[C@@H]2C[C@H]3[C@H](C)C(=O)C(O[C@@H]4O[C@H](CO)[C@@H](O)[C@H](O)[C@H]4O)=C[C@]3(C)[C@H]3[C@@H](O)[C@H](O)[C@@]4(C(=O)O)OC[C@]32[C@@H]14	39.5 µM	> 100 µM	69.1 µM	> 100 µM	> 100 µM	> 100 µM	> 100 µM	> 100 µM	55.9 µM	> 100 µM	> 100 µM	> 100 µM	65.7 µM	> 100 µM	48.2 µM	> 100 µM	> 100 µM	> 100 µM	–	–
Oc1ccc(-c2nc3ccccc3s2)cc1CN(Cc1ccccn1)Cc1ccccn1	0.228 µM	10.5 µM	0.34 µM	32.1 µM	1.96 µM	15.8 µM	1.09 µM	21.8 µM	1.42 µM	6.75 µM	0.313 µM	3.36 µM	4.19 µM	36.7 µM	2.14 µM	13.3 µM	3.4 µM	15.2 µM	2.08 µM	16.6 µM
O=C(O)C1(C(=O)O)CCC1.[NH2-].[NH2-].[Pt+2]	37.5 µM	206 µM	139 µM and > 250 µM	240 µM and > 250 µM	47.2 µM and 91.8 µM	130 µM and 194 µM	> 250 µM	> 250 µM	81.2 µM and 96 µM	221 µM and > 250 µM	> 90.8 µM and 66.7 µM	231 µM and > 250 µM	125 µM and 106 µM	222 µM and 246 µM	29.5 µM and 12.7 µM	201 µM and 191 µM	224 µM and > 250 µM	> 250 µM	165 µM and 186 µM	234 µM and > 250 µM
COc1cc(-c2cc(O)c(-c3ccc4ccccc4n3)c(=O)[nH]2)cc(OC)c1OC	–	> 80.6 µM	–	> 90.4 µM	–	> 78.8 µM	–	> 100 µM	–	74.5 µM	–	> 87.9 µM	–	> 81.6 µM	–	35.3 µM	–	> 93.2 µM	–	> 95.3 µM
O=C(Cc1ccc(F)c(F)c1)Nc1cc(C2(C(F)(F)F)CC2)nn1Cc1ccccc1	3.16 µM	7.58 µM	4.55 µM	> 15 µM	4.47 µM	> 15 µM	4.67 µM	> 15 µM	4.33 µM	> 15 µM	3.24 µM	11.5 µM	2.32 µM	8.75 µM	3.43 µM	8.33 µM	2.7 µM	6.34 µM	2.82 µM	8.67 µM
S=C(Nc1ccc(-c2nc3ccccc3[nH]2)cc1)Nc1ccc(-c2nc3ccccc3[nH]2)cc1	65 µM	> 100 µM	> 100 µM	> 100 µM	64.1 µM	> 100 µM	> 100 µM	> 100 µM	> 100 µM	> 100 µM	69.7 µM	> 100 µM	> 100 µM	> 100 µM	> 100 µM	> 100 µM	> 100 µM	> 100 µM	71.8 µM	> 100 µM
NCC1OC(n2cnc3c(N)ncnc32)CC1O (stereo not drawn)	–	> 100 µM	–	> 100 µM	–	> 100 µM	–	> 100 µM	–	> 100 µM	–	> 100 µM	–	> 100 µM	–	> 100 µM	–	> 100 µM	–	> 100 µM
